The test system of assay [1] is H2 -receptor. In words: Test A (H2 -receptor antagonism in isolated guinea-pig atrium). The note with it: inhibition of histamine (1×10^-6 g/ml)-induced increase in beating rate, test compound 1×10^-6 g/ml, 30 minutes, 30°C. As to the method: Test A (H2 -receptor antagonism in isolated guinea-pig atrium):
The atrial strip isolated from guinea-pig was suspended under an initial tension 0.3 to 0.6 g in an organ bath containing Tyrode solution at 30°C., aerated 95% O2 -5% CO2 gas. The beating rate and amplitude of contraction of the atrium were recorded by means of a transducer and a polygraph. Histamine (1×10^-6 g/ml) was added to the bathing fluid and the increase in beating rate after dosing was measured. Addition of test compounds (1×10^-6 g/ml) was made 30 minutes after washing out histamine. Inhibitory effect of test compound was calculated by comparing histamine-induced increases in beating rate before and 30 minutes after dosing with the test compounds.

Assay [2] deals with Campylobacter pyloridis 8008. In words: Test C (Anti-microbial activity), agar dilution method. Type of assay: cell-based. The settings on record: Helicobacter pylori, 72 h, Brucella agar plus 5% lysed horse blood, 37° C. for 3 days, 10% CO2, 10^4 cfu/ml. On the procedure: Test C (Anti-microbial activity):
In vitro antimicrobial activity was determined by the agar dilution method. Test strain was precultured in Brucella broth Agar containing 5% horse serum at 37° C. for 3 days, and 10^4 cfu/ml were inoculated with a multipoint replicater onto Brucella agar plus 5% lysed horse blood plate containing serial 2-fold dilutions of each drug at 37° C. for 3 days. Incubation was carried out in an atmosphere of 10% CO2. MIC was read after incubation as the lowest drug concentration that inhibited macroscopic colonial growth.

Assay [3] concerns histamine-stimulated gastric secretion. Briefly: Test B (Gastric secretion from lumen perfused stomach in anesthetized rats). The format is in vivo, Male Sprague-Dawley rats. The note with it: maximal inhibition of acid output, histamine 3 mg/kg/hr i.v., test compound 1 mg/kg intravenously. On the procedure: Test B (Gastric secretion from lumen perfused stomach in anesthetized rats):
Male Sprague-Dawley rats weighing about 250 g were used. Rats were deprived of food but allowed free access to water for 24 hours. The animals were anesthetized with 1.25 g/kg urethane intraperitoneally. The abdomen was opened and the gastric lumen was perfured with saline throughout the experiment. The perfusate was titrated by an autotitrator with 25 mM sodium hydroxide as a titrant. Gastric secretion was stimulated by intravenous infusion with histamine (3 mg/kg/hr). After reaching plateau, test compound (1 mg/kg) was given intravenously. Drug effect was expressed as maximal inhibition by acid output.

Assay [4] deals with HCl-aspirin ulcer. Briefly: Test D (Inhibition of HCl-aspirin ulcer). The settings on record: length of ulcers vs control; test compound 32 mg/kg orally 30 minutes before aspirin 200 mg/kg in 0.2N HCl; rats. The format is in vivo, male Sprague-Dawley rats. On the procedure:
Test D (Inhibition of HCl-aspirin ulcer):
Seven male Sprague-Dawley rats, aged 6 weeks and weighing about 200 g were used per group for the study on HCl-aspirin ulcer after the fast for 24 hours. Each of the test compounds (32 mg/kg) suspended in 0.1% methylcellulose solution was administered orally 30 minutes before aspirin administration. Aspirin, suspended in 0.1% methylcellulose solution containing 0.2N HCl, was administered orally at a dose of 200 mg/kg/10 ml. One hour later, the animals were sacrificed and their stomachs were removed. The stomach was then fixed with 2% formalin. The length of ulcers was measured for each animal, and percentage of inhibition was calculated by comparing the mean length of ulcers (mm) in the test animals with that in the control animals.

Regarding `CCCCCCNC(N)=Nc1nc(-c2ccc(CNC(C)=O)o2)cs1` [Test Compound (b), 4-(5-Acetylaminomethylfuran-2-yl)-2-(amino)(n-hexylamino)methyleneamino!thiazole], in assay [1], the “H2 Antagonism (%)” value was 78.5%. Further, the MIC in assay [2] is 0.1 µg/mL. As to `COCCNC(N)=Nc1nc(-c2ccc(CNC(C)=O)o2)cs1` [Test Compound (c), 4-(5-Acetylaminomethylfuran-2-yl)-2-(amino)-(2-methoxyethylamino)methyleneamino!thiazole], in assay [3], the “Inhibition (%)” value is 69%. As to `C=CCNC(N)=Nc1nc(-c2ccc(CNC(C)=O)o2)cs1` [Test Compound (e)], the minimum inhibitory concentration (MIC) in assay [2] amounted to 0.78 µg/mL. Regarding `CCCCNC(N)=Nc1nc(-c2ccc(CNC(C)=O)o2)cs1` [Test Compound (a), 4-(5-Acetylaminomethylfuran-2-yl)-2-(amino)(n-butylamino)methyleneamino!thiazole], the “Inhibition (%)” value in assay [4] was 86.9%.

Regarding `CC(=O)NCc1ccc(-c2csc(N=C(N)NCCc3ccccn3)n2)o1` [Test Compound (d), 4-(5-Acetylaminomethylfuran-2-yl)-2-(amino)-2-(2-pyridyl)ethylamino!methyleneamino!thiazole], the MIC in assay [2] came to 0.78 µg/mL.
